{"source": "patent US6566081B1", "about": "“Methods of identifying a compound which modulates the non-transcriptional non-map-kinase induced effects of steroid hormones” (The Brigham and Women's Hospital, Inc., priority 1999, dated 2003)", "key": {"[1]": {"system": "Akt/PKB", "experiment": "Immunoblotting of Akt phosphorylation (Thr 308, Ser 473)", "assay_type": "cell-based, human", "method": "After the different treatments, serum-starved endothelial cells were rinsed once with ice-cold PBS before addition of the lysis buffer (100 mM Tris-HCl, pH 6.8, 4% SDS, 20% glycerol, 1 mM sodium orthovanadate, 1 mM NaF, and 1 mM phenylmethylsulfonylfluoride) to the dishes on an ice tray. The cell lysates were scraped, boiled, and centrifuged for 2 min at 13000 rpm. Total cell lysates (40 μg of protein) and low range molecular weight markers (BIO-RAD, Hercules, Calif.) were separated by SDS-polyacrylamide gel electrophoresis (12% running, 4% stacking), electrophoretically transferred to polyvinylidene fluoride membranes (Immobilon P, 0.45 μm pore size) and incubated overnight at 4° C. with blocking solution (5% skim milk in TBS—0.1% Tween 20). Affinity-purified rabbit antibodies (0.4 μg of IgG/ml) vs. Akt, (Ser 473) phospho-Akt or (Thr 308) phospho-Akt (New England BioLabs, Beverly, Mass.), Erk1/2, (Tyr 204) phospho-Erk-1/-2 (Calbiochem, San Diego, Calif.) were incubated with the membranes overnight at 4° C. in TBS—0.1% Tween 20 containing 5% BSA. The blots were washed three times with TBS—0.1% Tween 20 and then treated with donkey anti-rabbit antibody (1:4000 dilution) coupled to horseradish peroxidase. Immunodetection was accomplished using the enhanced chemoluminescence kit (ECL Kit, Amersham Corp.)."}, "[2]": {"system": "Akt/PKB", "experiment": "Akt kinase assay (immunoprecipitated Akt, GSK-3 peptide)", "assay_type": "cell-based, human", "settings": "for stimulation of Akt kinase activity (words): E2/αE2 10 nM, insulin 100 nM", "method": "Immunoprecipitated Akt kinase activity was assayed on endothelial cell lysates by using the Aktl/PKBα immunoprecipitation kinase assay kit (Upstate Biotechnology, Lake Placid, N.Y.). Endothelial cells were starved in phenol red-free199 medium with 0.4% estrogen-deprived FBS, treated, washed, and then harvested in ice-cold Buffer A (50 mM Tris-HCl, pH 7.5, 1 mM EDTA, 1 mM EGTA, […] Na3VO4, 0.1% (v/v) 2-mercaptoethanol, 1% Triton X-100, 50 mM sodium fluoride, 5 mM sodium pyrophosphate, 10 mM sodium glycerophosphate, 0.1 mM PMSF, 1 μg/mL of aprotinin, pepstatin, leupeptin and 1 μM microcystin). The cleared cell lysates were incubated for 1 hour at 4° C. with 4 μg/tube of anit-Akt1/PKBα PH domain immunoaffinity purified sheep IgG, after which 50 μL of a 1:1 (v/v) protein G-agarose slurry was added for an additional hour of incubation at 4° C. After centrifugation, the immunoprecipitates were washed three times with Buffer A containing 0.5 M NaCl, then two times with Buffer B (50 mM Tris-HCl, pH 7.5, 0.03% (w/v) Brij-35, 0.1 mM EGTA, 0.1% (v/v) 2-mercaptoethanol), and finally twice with 1×Assay Buffer (20 mM MOPS, pH 7.2, 25 mM β-glycerol phosphate, 5 mM EGTA, 1 mM Na3VO4, 1 mM DTT).\nThe immunoprecipitates were resuspended in 10 μL of ice-cold 1×Assay Buffer, and were sequentially added: 10 μL of 40 μM PKA inhibitor peptide ([…]-NH2—corresponding to residues 7-23 of human PKA inhibitor), 10 μL of Akt/PKB specific substrate peptide (100 μM) (RPRAATF—corresponding to the phosphorylation site of glycogen synthase kinase-3, specifically targeted by Akt/PKB, but not by other protein kinases such as Rsk-2 and p70 S6 kinase), and 10 μL of [γ-^32P]ATP stock solution (1×Assay Buffer with 500 μM ATP, 75 mM MgCl2, containing 1 μCi/μL [γ^32-P]ATP, 3000 Ci/mmol). The reaction was incubated at 37° C. for 30 minutes, after which 40 μL of the supernatant was mixed with 20 μL of 40% TCA and incubated for 5 minutes at room temperature. 40 μL of each final fraction were spotted onto the center of a 2 cm×2 cm P81 phosphocellulose paper. The assay squares were washed three times with 0.75% phosphoric acid for five minutes at room temperature, then once with acetone. The squares were then transferred to vials containing a liquid scintillation cocktail and read in a scintillation counter. Blank reaction for the detection of the unspecific background were performed by substituting the cell lysate with Buffer A at the beginning of the procedure, and aspecific endogenous phosphorylation of proteins in the sample extract was estimated by substituting in some samples 1×Assay Buffer for the Akt/PKB specific substrate peptide."}, "[3]": {"system": "PtdIns-3,4,5-P3", "experiment": "Endogenous PtdIns-3,4,5-P3 levels in non-transfected human endothelial cells", "assay_type": "cell-based", "settings": "E2 10 nM, insulin 100 nM"}, "[4]": {"system": "PI3K", "experiment": "p-Tyr- and IRS-1-associated PI3K activity (immunoprecipitate)", "assay_type": "cell-based, human", "settings": "p-Tyr and IRS-1 immunoprecipitate"}, "[5]": {"system": "mouse cremaster muscle venules", "experiment": "Model of vascular injury: ischemia and reperfusion in the mouse cremaster muscle (leukocyte rolling and adhesion)", "assay_type": "in vivo", "settings": "mice with 1.5 mg slow-release E2 tablets s.c.", "method": "(§1) Mice were anesthetized and the cremaster muscle was studied under intravital microscopy^28. Ischemia was induced by applying pressure to supplying arteries just sufficient to stop blood flow for 30 min. In some experiments, wortmannin (100 nM) or L-NAME (0.1 mM) was applied to the cremaster muscle during the ischemic period. The pressure was released for reperfusion, and the same vessels were recorded in each animal before and after I/R. The rolling velocities of 25 leukocytes were measured in each venule; sorted and averaged for each rank to construct cumulative histograms. The velocities of 3,750 leukocytes were measured in 150 venules before and after I/R. The number of firmly adherent leukocytes was measured before and after I/R in the same 200 μm long segments of venules."}, "[6]": {"target": "T1, eNOS (Mus musculus, UniProt P70313)", "T1 construct": "from tissue; host or cells: cremaster muscle of male C57BL/6 mice", "T1 sequence (P70313 2-1202)": "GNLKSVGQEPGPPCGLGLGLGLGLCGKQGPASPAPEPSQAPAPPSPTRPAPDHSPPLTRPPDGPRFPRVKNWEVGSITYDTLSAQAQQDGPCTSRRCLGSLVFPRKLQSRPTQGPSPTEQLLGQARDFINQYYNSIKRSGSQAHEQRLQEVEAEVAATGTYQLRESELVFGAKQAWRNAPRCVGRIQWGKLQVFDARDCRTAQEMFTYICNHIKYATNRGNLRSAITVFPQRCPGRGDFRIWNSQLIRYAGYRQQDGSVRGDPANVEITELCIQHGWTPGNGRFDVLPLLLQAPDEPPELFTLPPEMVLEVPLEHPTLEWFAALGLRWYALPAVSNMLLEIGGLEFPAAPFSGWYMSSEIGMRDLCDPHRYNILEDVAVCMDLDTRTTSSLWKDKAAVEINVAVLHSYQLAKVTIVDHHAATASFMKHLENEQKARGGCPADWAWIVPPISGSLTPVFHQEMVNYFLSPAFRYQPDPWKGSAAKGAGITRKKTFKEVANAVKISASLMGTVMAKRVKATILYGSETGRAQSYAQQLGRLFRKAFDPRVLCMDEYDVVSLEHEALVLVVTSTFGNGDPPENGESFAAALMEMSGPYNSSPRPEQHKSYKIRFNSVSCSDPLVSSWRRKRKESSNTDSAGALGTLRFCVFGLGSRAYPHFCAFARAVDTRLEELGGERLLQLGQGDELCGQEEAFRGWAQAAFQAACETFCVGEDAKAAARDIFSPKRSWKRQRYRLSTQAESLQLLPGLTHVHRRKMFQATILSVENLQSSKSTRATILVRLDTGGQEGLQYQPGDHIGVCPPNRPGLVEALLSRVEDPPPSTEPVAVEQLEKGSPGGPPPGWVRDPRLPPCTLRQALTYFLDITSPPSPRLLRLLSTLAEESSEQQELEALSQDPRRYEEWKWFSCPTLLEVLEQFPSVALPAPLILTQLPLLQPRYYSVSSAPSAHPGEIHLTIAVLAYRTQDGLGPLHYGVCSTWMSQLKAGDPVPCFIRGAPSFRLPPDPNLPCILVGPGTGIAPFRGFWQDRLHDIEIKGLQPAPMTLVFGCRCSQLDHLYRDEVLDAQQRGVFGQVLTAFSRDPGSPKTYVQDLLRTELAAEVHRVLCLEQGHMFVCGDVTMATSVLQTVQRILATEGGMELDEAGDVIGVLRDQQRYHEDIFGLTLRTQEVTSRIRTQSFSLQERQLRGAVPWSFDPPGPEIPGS", "experiment": "Cremaster eNOS activity in mice", "assay_type": "in vivo", "settings": "mice with 1.5 mg slow-release E2 tablets s.c.", "method": "as §1, with “venules. The following number of venules were studies for leukocyte adhesion: Untreated, 15 venules; E2-treated, 20 venules; E2-treated with wortmannin, 25 venules; E2-treated with L-NAME, 15 venules. Cremaster eNOS activity was measured in 3 untreated, 4 E2-treated, 5 E2-treated with wortmannin, and 4 E2-treated with L-NAME mice.” for “venules.”"}, "[7]": {"experiment": "Serum E2 level in mice implanted with E2 tablets", "assay_type": "in vivo, mouse", "settings": "mice implanted s.c. with 1.5 mg slow-release E2 tablets, 3-5 days"}, "[8]": {"system": "eNOS", "experiment": "E2-stimulated eNOS activity in transfected murine fibroblasts", "settings": "murine fibroblasts transfected with ERα and eNOS cDNAs"}, "[9]": {"settings": "E2/αE2 10 nM, insulin 100 nM, 20 min"}}, "note": "“Also recorded” adds a separate entry of the source."}
{"molecule": "17β-estradiol [E2]", "values": [{"measurement": "Akt Ser 473 phosphorylation", "setting": "[1]; [9]", "result": "hyperphosphorylated after 20 minutes"}, {"measurement": "Akt threonine (Thr 308) phosphorylation", "setting": "[1]; [9]", "result": "phosphorylated after 20 minutes; also recorded: increase in Akt phosphorylation"}, {"measurement": "stimulation of Akt kinase activity (words)", "setting": "[2]; 20 min", "result": "activated; also recorded: stimulated"}, {"measurement": "increase in Akt kinase activity after 10 min", "setting": "[2]; E2 stimulation, 10 min", "result": 1.5, "unit": "fold"}, {"measurement": "increase in Akt kinase activity after 20 min", "setting": "[2]; E2 stimulation, 20 min", "result": 2.3, "unit": "fold"}, {"measurement": "endogenous PtdIns-3,4,5-P3 levels", "setting": "[3]", "result": "increased"}, {"measurement": "p-Tyr- or IRS-1-associated PI3K activity", "setting": "[4]", "result": "did not increase"}, {"measurement": "changes in leukocyte accumulation and rolling velocity following I/R", "setting": "[5]", "result": "prevented"}, {"measurement": "increase in eNOS activity in cremaster muscle", "setting": "[6]", "result": 3.2, "unit": "fold"}, {"measurement": "serum E2 level", "setting": "[7]", "result": "760 ± 30", "unit": "pg/mL"}, {"measurement": "increase in eNOS activity, wild-type fibroblasts", "setting": "[8]", "result": 8, "unit": "fold"}]}
{"molecule": "C[C@]12CC[C@@H]3c4ccc(O)cc4C[C@@H](CCCCCCCCC[S+]([O-])CCCC(F)(F)C(F)(F)F)[C@H]3[C@@H]1CC[C@@H]2O", "note": "(stereo partly drawn) [ICI 187,780]", "values": [{"measurement": "effect on E2-induced Akt Ser 473 phosphorylation", "setting": "[1]; ICI 10 μM, wortmannin 30 nM", "result": "not inhibited"}, {"measurement": "effect on E2-induced Akt Thr 308 phosphorylation", "setting": "[1]; ICI 10 μM, wortmannin 30 nM", "result": "blocked"}, {"measurement": "effect on E2-stimulated Akt kinase activity", "setting": "[2]; ICI 10 μM, wortmannin 30 nM", "result": "nearly completely abolished; also recorded: almost completely inhibited"}]}
{"molecule": "insulin: known activator of the PI3-kinase/Akt pathway", "values": [{"measurement": "stimulation of Akt kinase activity (words)", "setting": "[2]; 20 min", "result": "substantial increase"}, {"measurement": "stimulation of Akt kinase activity (words)", "setting": "[2]; 20 min, listed as Insulin", "result": "marked activation"}, {"measurement": "endogenous PtdIns-3,4,5-P3 levels", "setting": "[3]", "result": "rapidly increased"}, {"measurement": "p-Tyr- or IRS-1-associated PI3K activity", "setting": "[4]", "result": "increases"}]}
